PubChem BioAssay AID179 (DTP/NCI, 2004)
The source made the active and inactive calls.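 Rule for the calls: active = compounds giving half or more protection of infected cells from virus-caused growth loss, again on retest; inactive = the rest.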

Tested on: CEM cells HIV-1 protection, formazan growth assay
Assay: NCI AIDS Antiviral Assay
Conditions: for IC50: measured here: growth of uninfected CEM cells
In short: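 CEM (human) cells, HIV-1 infected vs uninfected, 5-point dosing, formazan growth read-out. Retest threshold 50% protection.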

CCOC(=O)c1nc2ccc(C(F)(F)F)cc2nc1Nc1cc(OC)c(OC)c(OC)c1
EC50: > 200 µM | IC50: > 200 µM

CN(C=O)/C=C/c1cc(O)ccc1O
outcome: inactive

OC1c2ccccc2C(O)C2OC12 (stereo not drawn)
EC50: > 200 µM | IC50: 115 µM

COC(=CN=Nc1nc(C#N)c(C#N)[nH]1)OC
EC50: > 214 µM | IC50: 162 µM

C=C1C(OC(C)=O)[C@@]23CC[C@@H]4C(C)(C(=O)OC)CCCC4(C)[C@@H]2CC[C@@H]1C3 (stereo partly drawn)
EC50: > 200 µM | IC50: 51.3 µM

Cc1sc2nc3n(c(=O)c2c1C)N=C(c1ccccc1)CS3
EC50: > 200 µM | IC50: > 200 µM

COc1cccc(N=N/C(=N\NC(=O)c2cc(Br)ccc2O)c2ccc(N(CCC#N)CCC#N)cc2OC)c1
EC50: > 100 µM | IC50: 13.5 µM

CCC/C(Cl)=N\OC(=O)Nc1ccc(F)cc1
EC50: > 20 µM | IC50: 2.82 µM

CCc1cccc(CC)c1NC(=S)N/C=C(\C#N)C(=O)c1ccc2ccccc2c1
outcome: inactive

CC1OC(=O)C2=C1C(=O)CC(C)(C)O2 (stereo not drawn)
EC50: > 182 µM | IC50: 170 µM

O=C(NNc1nc2ccccc2n2cccc12)c1cnccn1
EC50: > 2 µM | IC50: 0.417 µM

Cc1nc(Nc2ccc(Cl)cc2)sc1C(=O)NNc1ccc([N+](=O)[O-])cc1[N+](=O)[O-]
EC50: > 39.8 µM | IC50: 25.1 µM

O=C1C2=C(c3ccccc31)C(c1ccccc1Cl)N1C(=O)CCSC1=N2 (stereo not drawn)
EC50: > 26.3 µM | IC50: > 26.3 µM

Cc1ccc(NC(=O)CC(=O)n2nc(-c3ccccc3)c(N=Nc3ccccc3C(=O)O)c2-c2ccccc2)cc1
EC50: > 25.1 µM | IC50: > 25.1 µM

CCN(CCN1C(=O)C2CCCCC2C1=O)c1ccc(N=O)c(C)c1 (stereo not drawn)
EC50: > 200 µM | IC50: 1.78 µM

C=CNC(=S)N/C=C(\C#N)S(=O)(=O)c1ccc(C)cc1
EC50: > 200 µM | IC50: > 200 µM

NCCNC(=O)CN(CC(=O)O)C1CCCCC1N(CC(=O)O)CC(=O)O (stereo not drawn)
EC50: > 200 µM | IC50: > 200 µM

Cc1cc2c(cc1C)NC(=O)C(NC(=O)/C=C/c1ccccc1)C=N2 (stereo not drawn)
EC50: > 56.2 µM | IC50: 38.9 µM

COc1ccccc1Cn1nc(OC)c2cc([N+](=O)[O-])ccc21
EC50: > 151 µM | IC50: > 151 µM

CN(C)NC(=S)NC12CC3CC(CC(C3)C1)C2
outcome: inactive

O=C(OCCC[P+](c1ccccc1)(c1ccccc1)c1ccccc1)c1ccccc1
EC50: > 200 µM | IC50: 3.39 µM

Cc1cccc(C)c1NC(=O)CCC(=O)NNC(=O)c1cc(O)c2ccccc2c1
EC50: > 234 µM | IC50: 33.9 µM

COc1ccc(C(c2ccc(C(C)C)cc(OC)c2=O)c2ccc(C(C)C)cc(OC)c2=O)cc1
outcome: inactive

O=C1C2=Cc3ccccc3CCN2c2ccccc21
EC50: > 200 µM | IC50: 26.9 µM

CCN(/N=C1\CC2C=CCN(C2)C(=O)Cc2c1[nH]c1ccccc21)S(=O)(=O)c1ccc(C)cc1 (stereo not drawn)
EC50: > 63.1 µM | IC50: 60.3 µM

O=C(O)c1ccc(C2C3C=CC(C3)C2[N+](=O)[O-])cc1 (stereo not drawn)
EC50: > 347 µM | IC50: > 347 µM

CCOC(=O)C1CC(O)C(=O)N1C (stereo not drawn)
outcome: inactive

CCC/C(=N\NC(=O)c1cc2ccccc2cc1O)C(CC)C(=O)CCC(=O)N(Cc1ccccc1)Cc1ccccc1 (stereo not drawn)
EC50: > 44.7 µM | IC50: > 44.7 µM

Cc1cccnc1NC(=O)NCCCl
EC50: > 200 µM | IC50: > 200 µM

O=C(NCCCCN(CCCNC(=O)C(F)(F)F)Cc1ccccc1)C(F)(F)F
EC50: > 200 µM | IC50: 97.7 µM

c1ccc2c(c1)SCC1COCOC21 (stereo not drawn)
EC50: > 631 µM | IC50: 617 µM

COc1c2occc2c(OC(C)C(=O)O)c2c(O)cc(=O)oc12 (stereo not drawn)
EC50: > 282 µM | IC50: > 282 µM

CCCN(CCCc1ccccc1)CCc1ccc2[nH]c(=S)[nH]c2c1
EC50: > 200 µM | IC50: 35.5 µM

N#CC1C(=S)NC(c2ccccc2)=CC12CCCCC2 (stereo not drawn)
EC50: > 200 µM | IC50: 42.7 µM

COc1ccc(CSc2ccccc2Cn2cccc2)cc1OC
outcome: inactive

Oc1[nH]c2ccccc2c1N=Nc1nc(-c2ccc(Br)cc2)cs1
EC50: > 200 µM | IC50: 120 µM

Cc1cc(C)n2c(C)nnc2c1
EC50: > 1550 µM | IC50: 1120 µM

Cc1c(C)c2c(c(N)c1C#N)C(=O)N(N)C2=O
EC50: > 200 µM | IC50: 132 µM

CC1(C)C(=NNC(=S)NN)C(C)(C)C1=NNC(=S)NN
EC50: > 794 µM | IC50: 151 µM

COc1ccc(N2C(=O)C(=O)C3(CCCCC3)C2=O)c2ccccc12
EC50: > 200 µM | IC50: > 200 µM

CC(/C=C/c1ccccc1)=N\NC(=S)N/N=C(C)/C=C/c1ccccc1
EC50: > 200 µM | IC50: 4.07 µM

NC(=S)C(=S)N/C=C(/c1ccc(Cl)cc1)S(=O)(=O)Cc1ccc(Cl)cc1
outcome: inactive

COC1(O)C(=O)c2ccccc2OC1(OC)c1ccccc1 (stereo not drawn)
EC50: > 200 µM | IC50: 112 µM

NCC1OC(OC2C(N)CC(N)C(O)C2O)C(NC(=O)c2ccccc2)C(O)C1O (stereo not drawn)
outcome: inactive

O=C1CCC(N2C(=O)c3ccccc3C2=O)C(=O)N1 (stereo not drawn)
outcome: inactive

S=CN1CCCCC1
EC50: > 200 µM | IC50: > 200 µM
